Data on one compound can be found in patent US20120010148A1, “COMBINATION THERAPIES USING NAP” (ALLON THERAPEUTICS INC., priority 2008, published 2012).

Assay [1] has as its system STOP+/− mice. In words: Morris water maze and probe test. The assay is classed as in vivo, mouse. How it is done:
The NAP vehicle solution (termed DD), included the following ingredients (per milliliter): 7.5 mg of NaCl, 1.7 mg of citric acid monohydrate, 3 mg of disodium phosphate dihydrate, and 0.2 mg of benzalkonium chloride solution (50%) (Alcalay R N et al., Neurosci Lett, 361(1-3): 128-131 (2004)). NAP or vehicle solution (DD) was administered to mice hand-held in a semisupine position with nostrils facing the investigator. A pipette tip was used to administer 2.5 μl/nostril. The mouse was hand-held until the solution was totally absorbed (10 s). […]
The test measures the ability of rodents to learn and remember, by spatial navigation, the place of the hidden platform in a round water maze. […] Here, mice were monitored on five consecutive swimming days. […] The time required to reach the platform during the first daily test (indicative of learning and intact reference memory) and the time required to reach the platform in the second trial [indicative of short-term (working) memory] were measured and recorded separately. […] The platform was removed from the maze and the time spent by the mice in the pool's quadrant where the platform used to be was recorded. […] Mice were released into the water and the time taken to find the platform was recorded (maximum 60 seconds). […]

The subject of assay [2] is STOP+/+ mice. The assay is described as follows: Behavioral tests in control STOP+/+ mice. Format: in vivo, mouse. From the text: For the initial comparisons of STOP+/− mice to STOP+/+ mice (littermates), each experimental group included 10-12 mice, 4-12 month-old; mean age 6 months, there were no highly significant differences between the tested ages in terms of the behavioral outcome). The STOP+/+ and STOP+/− male mice received daily (5 days a week) NAP nasal application vehicle as follows below for the duration of 7-10 weeks.
The NAP vehicle solution (termed DD), included the following ingredients (per milliliter): 7.5 mg of NaCl, 1.7 mg of citric acid monohydrate, 3 mg of disodium phosphate dihydrate, and 0.2 mg of benzalkonium chloride solution (50%) (Alcalay R N et al., Neurosci Lett, 361(1-3): 128-131 (2004)). […]
Locomotor activity was measured in 5 consecutive sessions, 3 minutes each and the mean path length in cm of each mouse in the 3 minute sessions per the entire 15 minute period of observation in open field (80 cm diameter) was determined. […]
The test is based on visual discrimination between two different objects in an arena of 30 cm×40 cm. […] One hour after the daily intranasal NAP treatment, or clozapine injection, each male mouse was exposed to two identical objects for 5 minutes and the time spent sniffing/touching each object was measured (first daily session). […] The data was analyzed using two different methods. […]

In assay [3] the test system is normal aging rats. The conditions noted are these: intranasal administration; cited from earlier work.
Assay [4] has as its system closed head injury in mice. Particulars: cited from earlier work.
The test system of assay [5] is peripheral blood mononuclear cells (PBMCs). The conditions noted are these: cited from earlier work.

Molecules are shown by their SMILES. Entries after “also recorded” stand apart in the source; their conditions may differ.

With `CC[C@H](C)[C@H](NC(=O)[C@H](CO)NC(=O)[C@@H](NC(=O)[C@@H]1CCCN1C(=O)[C@H](C)NC(=O)[C@@H](N)CC(N)=O)C(C)C)C(=O)N1CCC[C@H]1C(=O)N[C@@H](CCC(N)=O)C(=O)O` [NAP], the “probe test, time in area where the platform used to be (spatial memory)” value in assay [1] (Example 3, STOP+/− male mice, 5th day, NAP intranasal 0.5 μg/mouse/day or clozapine IP, FIG. 10) was “significantly improved the performance; also recorded: significantly more time”. Besides, the “Morris water maze learning and memory” value in assay [1] (Example 4, STOP+/− mice, NAP 0.5 microgram/mouse/day, clozapine 3 mg/kg/day, FIG. 13) is on record as “protection against adverse clozapine effects on learning”. In assay [2] (STOP+/+ mice, NAP intranasal 0.5 μg/mouse/day), the “open field locomotor activity in control mice” value is “trend; also recorded: non-significant effect”. The “cognitive performance of control mice” value in assay [2] (control mice treated with NAP) is on record as “did not show improvement in their cognitive performance”. In addition, the “performance in the Morris water maze” value in assay [3] is given as “improved performance”. For the same compound, the “damage caused by closed head injury” value in assay [4] is recorded as “reduced damage”. Moreover, in assay [5], the anti-CD3-/anti-CD28-stimulated proliferation entry is recorded as “suppressed”; the “expression of CD69, CD154 and IFN-γ” value is reported as “decreased the expression”.
